Reference: ChEMBL document CHEMBL1156251, “Structure--activity relationships of polymyxin antibiotics” (J Med Chem, 2010)
Values after ≈ are worked out from the molar mass of the structure shown. Values joined by “and” are separate entries in the source; they are usually repeats but may differ in a detail not shown here. Identical values can stand only once. Where a SMILES comes first, the peptide text is derived from it. Bridges are numbered along the chain shown (N, C = ends). [ ]: non-standard residue; d: D form. The star is where a group is joined. Nonanoyl = CCCCCCCCC(=O)*; Dab = NCC[C@H](N)C(=O)O

Legend:
[1] = system: Klebsiella pneumoniae; assay: Antimicrobial activity against Klebsiella pneumoniae; type: functional
[2] = system: Escherichia coli; assay: Antimicrobial activity against Escherichia coli; type: functional
[3] = system: Pseudomonas aeruginosa; assay: Antimicrobial activity against Pseudomonas aeruginosa; type: functional, organism-based
[4] = system: Salmonella enterica; assay: Antimicrobial activity against Salmonella enterica; type: functional
[5] = biological target: Lipopolysaccharide (LPS); assay: Displacement of dansyl-PMB from LPS by isothermal titration calorimetry

Structure (SMILES) | MIC [1] [µg/mL] | MIC [2] | MIC [3] | MIC [4] [µM] | IC50 [5]
CC(C)C[C@@H]1NC(=O)[C@@H](Cc2ccccc2)NC(=O)[C@H](CCN)NC(=O)[C@@H](NC(=O)[C@H](CCN)NC(=O)[C@H](NC(=O)[C@H](CCN)NC(=O)OCC2c3ccccc3-c3ccccc32)[C@@H](C)O)CCNC(=O)[C@@H]([C@@H](C)O)NC(=O)[C@H](CCN)NC(=O)[C@H](CCN)NC1=O | 16 (≈ 12.4 µM) | 8 µg/mL | 4 µg/mL |  | 
CCC(C)CCCCC(=O)N[C@@H](CC/N=C/c1ccc(N(C)C)cc1)C(=O)N[C@@H](C(=O)N[C@@H](CC/N=C/c1ccc(N(C)C)cc1)C(=O)N[C@H]1CCNC(=O)[C@@H]([C@@H](C)O)NC(=O)[C@H](CC/N=C/c2ccc(N(C)C)cc2)NC(=O)[C@H](CC/N=C/c2ccc(N(C)C)cc2)NC(=O)[C@H](CC(C)C)NC(=O)[C@@H](Cc2ccccc2)NC(=O)[C@H](CC/N=C\c2ccc(N(C)C)cc2)NC1=O)[C@@H](C)O (some centres undefined) | 3.1 (≈ 1.67 µM) | 12 µg/mL |  |  | 
CCC(C)CCCCC(=O)N[C@@H](CC/N=C/c1ccc(O)c(OC)c1)C(=O)N[C@@H](C(=O)N[C@@H](CCN)C(=O)N[C@H]1CCNC(=O)[C@@H]([C@@H](C)O)NC(=O)[C@H](CC/N=C/c2ccc(O)c(OC)c2)NC(=O)[C@H](CC/N=C/c2ccc(O)c(OC)c2)NC(=O)[C@H](CC(C)C)NC(=O)[C@@H](Cc2ccccc2)NC(=O)[C@H](CC/N=C/c2ccc(O)c(OC)c2)NC1=O)[C@@H](C)O (some centres undefined) | 26 (≈ 14.9 µM) |  |  |  | 
CCC(C)CCCCC(=O)N[C@@H](CCNCc1ccc(C(C)C)cc1)C(=O)N[C@@H](C(=O)N[C@@H](CCN)C(=O)N[C@H]1CCNC(=O)[C@@H]([C@@H](C)O)NC(=O)[C@H](CCNCc2ccc(C(C)C)cc2)NC(=O)[C@H](CCNCc2ccc(C(C)C)cc2)NC(=O)[C@H](CC(C)C)NC(=O)[C@@H](Cc2ccccc2)NC(=O)[C@H](CCNCc2ccc(C(C)C)cc2)NC1=O)[C@@H](C)O (some centres undefined) | 26 (≈ 15 µM) | 12 µg/mL |  |  | 
CCC(C)CCCCC(=O)N[C@@H](CCNCc1ccc(O)c(OC)c1)C(=O)N[C@@H](C(=O)N[C@@H](CCN)C(=O)N[C@H]1CCNC(=O)[C@@H]([C@@H](C)O)NC(=O)[C@H](CCNCc2ccc(O)c(O)c2)NC(=O)[C@H](CCNCc2ccc(O)c(OC)c2)NC(=O)[C@H](CC(C)C)NC(=O)[C@@H](Cc2ccccc2)NC(=O)[C@H](CCNCc2ccc(O)c(OC)c2)NC1=O)[C@@H](C)O (some centres undefined) | 12 (≈ 6.92 µM) | 724 µg/mL |  |  | 
CCC(C)CCCCC(=O)N[C@@H](CC/N=C/c1ccc(O)c(OC)c1)C(=O)N[C@@H](C(=O)N[C@@H](CCN)C(=O)N[C@H]1CCNC(=O)[C@@H]([C@@H](C)O)NC(=O)[C@H](CC/N=C/c2ccc(O)c(OC)c2)NC(=O)[C@H](CC/N=C/c2ccc(O)c(OC)c2)NC(=O)[C@H](CC(C)C)NC(=O)[C@@H](CC(C)C)NC(=O)[C@H](CC/N=C/c2ccc(O)c(OC)c2)NC1=O)[C@@H](C)O (some centres undefined) | 2.8 (≈ 1.64 µM) | 5.5 µg/mL |  |  | 
CCC(C)CCCCC(=O)N[C@@H](CCNCc1ccccc1)C(=O)N[C@H](C(=O)N[C@@H](CCN)C(=O)N[C@H]1CCNC(=O)[C@H]([C@@H](C)O)NC(=O)[C@H](CCNCc2ccccc2)NC(=O)[C@H](CCNCc2ccccc2)NC(=O)[C@H](CC(C)C)NC(=O)[C@@H](Cc2ccccc2)NC(=O)[C@H](CCNCc2ccccc2)NC1=O)[C@@H](C)O (some centres undefined) | 1.3 (≈ 0.831 µM) | 5 µg/mL |  |  | 
CCC(C)CCCCC(=O)N[C@@H](CC/N=C/c1ccc(O)cc1)C(=O)N[C@H](C(=O)N[C@@H](CCN)C(=O)N[C@H]1CCNC(=O)[C@H]([C@@H](C)O)NC(=O)[C@H](CC/N=C/c2ccc(O)cc2)NC(=O)[C@H](CC/N=C/c2ccc(O)cc2)NC(=O)[C@H](CC(C)C)NC(=O)[C@@H](Cc2ccccc2)NC(=O)[C@H](CC/N=C/c2ccc(O)cc2)NC1=O)[C@@H](C)O (some centres undefined) | 26 (≈ 16.1 µM) |  |  |  | 
CCC(C)CCCCC(=O)N[C@@H](CC/N=C/c1ccccc1)C(=O)N[C@H](C(=O)N[C@@H](CCN)C(=O)N[C@H]1CCNC(=O)[C@H]([C@@H](C)O)NC(=O)[C@H](CC/N=C/c2ccccc2)NC(=O)[C@H](CC/N=C/c2ccccc2)NC(=O)[C@H](CC(C)C)NC(=O)[C@@H](Cc2ccccc2)NC(=O)[C@H](CC/N=C/c2ccccc2)NC1=O)[C@@H](C)O (some centres undefined) | 26 (≈ 16.7 µM) |  |  |  | 
CCC(C)CCCCC(=O)N[C@@H](CCNCc1ccc(O)cc1)C(=O)N[C@H](C(=O)N[C@@H](CCN)C(=O)N[C@H]1CCNC(=O)[C@H]([C@@H](C)O)NC(=O)[C@H](CCNCc2ccc(O)cc2)NC(=O)[C@H](CCNCc2ccc(O)cc2)NC(=O)[C@H](CC(C)C)NC(=O)[C@@H](Cc2ccccc2)NC(=O)[C@H](CCNCc2ccc(O)cc2)NC1=O)[C@@H](C)O (some centres undefined) | 1.6 (≈ 0.983 µM) | 6.2 µg/mL |  |  | 
CCC(C)CCCCC(=O)N[C@@H](CC/N=C/c1ccc(N(C)C)cc1)C(=O)N[C@H](C(=O)N[C@@H](CCN)C(=O)N[C@H]1CCNC(=O)[C@H]([C@@H](C)O)NC(=O)[C@H](CC/N=C/c2ccc(N(C)C)cc2)NC(=O)[C@H](CC/N=C/c2ccc(N(C)C)cc2)NC(=O)[C@H](CC(C)C)NC(=O)[C@@H](CC(C)C)NC(=O)[C@H](CC/N=C/c2ccc(N(C)C)cc2)NC1=O)[C@@H](C)O (some centres undefined) | 3.1 (≈ 1.83 µM) | 12 µg/mL |  |  | 
CCC(C)CCCCC(=O)N[C@@H](CCNCc1ccc(O)cc1)C(=O)N[C@H](C(=O)N[C@@H](CCN)C(=O)N[C@H]1CCNC(=O)[C@H]([C@@H](C)O)NC(=O)[C@H](CCNCc2ccc(O)cc2)NC(=O)[C@H](CCNCc2cccc(O)c2)NC(=O)[C@H](CC(C)C)NC(=O)[C@@H](CC(C)C)NC(=O)[C@H](CCNCc2ccc(O)cc2)NC1=O)[C@@H](C)O (some centres undefined) | 1.4 (≈ 0.878 µM) | 5.5 µg/mL |  |  | 
CCC(C)CCCCC(=O)N[C@@H](CCNCc1ccccc1)C(=O)N[C@H](C(=O)N[C@@H](CCN)C(=O)N[C@H]1CCNC(=O)[C@H]([C@@H](C)O)NC(=O)[C@H](CCNCc2ccccc2)NC(=O)[C@H](CCNCc2ccccc2)NC(=O)[C@H](CC(C)C)NC(=O)[C@@H](CC(C)C)NC(=O)[C@H](CCNCc2ccccc2)NC1=O)[C@@H](C)O (some centres undefined) | 1.3 (≈ 0.85 µM) | 5 µg/mL |  |  | 
CCC(C)CCCCC(=O)N[C@@H](CC/N=C/c1ccccc1)C(=O)N[C@H](C(=O)N[C@@H](CCN)C(=O)N[C@H]1CCNC(=O)[C@H]([C@@H](C)O)NC(=O)[C@H](CC/N=C/c2ccccc2)NC(=O)[C@H](CC/N=C/c2ccccc2)NC(=O)[C@H](CC(C)C)NC(=O)[C@@H](CC(C)C)NC(=O)[C@H](CC/N=C/c2ccccc2)NC1=O)[C@@H](C)O (some centres undefined) | 26 (≈ 17.1 µM) | 0.08 µg/mL |  |  | 
CCCCCCCC(=O)N[C@@H](CCN)C(=O)N[C@@H](C(=O)N[C@@H](CCN)C(=O)N[C@H]1CCNC(=O)[C@H]([C@@H](C)O)NC(=O)[C@H](CCNCCCCCC(C)CC)NC(=O)[C@H](CCN)NC(=O)[C@H](CC(C)C)NC(=O)[C@@H](Cc2ccccc2)NC(=O)[C@H](CCN)NC1=O)[C@@H](C)O (some centres undefined) | 0.7 (≈ 0.532 µM) | 3.1 µg/mL | 2.18 µg/mL |  | 
CCCCCCCC(=O)N[C@@H](CCN)C(=O)N[C@H](C(=O)N[C@@H](CCN)C(=O)N[C@H]1CCNC(=O)[C@H]([C@@H](C)O)NC(=O)[C@H](CCNC(=O)[C@@H](N)Cc2ccc(O)cc2)NC(=O)[C@H](CCN)NC(=O)[C@H](CC(C)C)NC(=O)[C@@H](Cc2ccccc2)NC(=O)[C@H](CCN)NC1=O)[C@@H](C)O | 2.2 (≈ 1.63 µM) | 0.175 µg/mL | 0.073 µg/mL |  | 
CCCCCCCC(=O)N[C@@H](CCN)C(=O)N[C@H](C(=O)N[C@@H](CCN)C(=O)N[C@H]1CCNC(=O)[C@H]([C@@H](C)O)NC(=O)[C@H](CCNC(=O)[C@H](N)CCSC)NC(=O)[C@H](CCN)NC(=O)[C@H](CC(C)C)NC(=O)[C@@H](Cc2ccccc2)NC(=O)[C@H](CCN)NC1=O)[C@@H](C)O | 5.65 (≈ 4.28 µM) | 0.77 µg/mL | 0.416 µg/mL |  | 
CCCCCCCC(=O)N[C@@H](CCN)C(=O)N[C@H](C(=O)N[C@@H](CCN)C(=O)N[C@H]1CCNC(=O)[C@H]([C@@H](C)O)NC(=O)[C@H](CCNC(=O)[C@@H](N)CS)NC(=O)[C@H](CCN)NC(=O)[C@H](CC(C)C)NC(=O)[C@@H](Cc2ccccc2)NC(=O)[C@H](CCN)NC1=O)[C@@H](C)O | 11.3 (≈ 8.75 µM) | 1.68 µg/mL | 2.82 µg/mL |  | 
CCCCCCCCC(=O)N[C@@H](CCN)C(=O)N[C@H](C(=O)N[C@@H](CCN)C(=O)N[C@H]1CCNC(=O)[C@H]([C@@H](C)O)NC(=O)[C@H](CCN)NC(=O)[C@H](CCN)NC(=O)[C@H](CC(C)C)NC(=O)[C@@H](Cc2ccccc2)NC(=O)[C@H](CCN)NC1=O)[C@@H](C)O [POLYMYXIN B5] (Nonanoyl-[Dab]T[Dab][Dab][Dab][dF]L[Dab][Dab]T; lactam 4-C) |  | 1 µM | 1 µM | 1 (≈ 1.2 µg/mL) | 6 nmol/mL
CCC(C)CCC(O)CC(=O)N[C@@H](CCN)C(=O)N[C@H](C(=O)N[C@@H](CCN)C(=O)N[C@H]1CCNC(=O)[C@H]([C@@H](C)O)NC(=O)[C@H](CCN)NC(=O)[C@H](CCN)NC(=O)[C@H](CC(C)C)NC(=O)[C@@H](Cc2ccccc2)NC(=O)[C@H](CCN)NC1=O)[C@@H](C)O (some centres undefined) [POLYMYXIN B6] |  | 0.5 µM | 0.5 µM | 0.5 (≈ 0.61 µg/mL) | 7 nmol/mL
CC(C)C[C@@H]1NC(=O)[C@@H](Cc2ccccc2)NC(=O)[C@H](CCN)NC(=O)[C@@H](N)CCNC(=O)[C@H]([C@@H](C)O)NC(=O)[C@H](CCN)NC(=O)[C@H](CCN)NC1=O [POLYMYXIN B HEPTAPEPTIDE] |  | ≥ 256 µM and ≥ 300 µg/mL | 128 µM | ≥ 256 | >= 32 nmol/ml
CC(C)C[C@@H]1NC(=O)[C@@H](Cc2ccccc2)NC(=O)[C@H](CCN)NC(=O)[C@@H](NC(=O)[C@@H](N)CCN)CCNC(=O)[C@H]([C@@H](C)O)NC(=O)[C@H](CCN)NC(=O)[C@H](CCN)NC1=O [POLYMYXIN B OCTAPEPTIDE] (H-[Dab][Dab][Dab][dF]L[Dab][Dab]T; lactam 2-C) |  | ≥ 128 µM and ≥ 300 µg/mL | 64 µM | 256 (≈ 221 µg/mL) | 21 nmol/mL
